Paper PMC10287695, “Non-covalent inhibitors of thioredoxin glutathione reductase with schistosomicidal activity in vivo” (Nature Communications, 2023)
Read-outs that look alike come from different tables or passages of the source. Marks after values point to notes of the source that are not given here.

How the values were obtained:
Human TrxR1 = biological target: T1, Human TrxR1 (Homo sapiens, UniProt Q16881); experiment: Human TrxR1 enzyme inhibition (DTNB reduction); assay type: biochemical; conditions: for IC50: 15 min preincubation (enzyme + 100 µM NADPH + compound), read-out: Human TrxR1 IC50; for % inhibition: hsTrxR; for % inhibition / hsTrxR % inhibition: 15 minutes pre-incubation
T1 construct: made in house
T1 sequence (Q16881 1-499 isoform Q16881-5): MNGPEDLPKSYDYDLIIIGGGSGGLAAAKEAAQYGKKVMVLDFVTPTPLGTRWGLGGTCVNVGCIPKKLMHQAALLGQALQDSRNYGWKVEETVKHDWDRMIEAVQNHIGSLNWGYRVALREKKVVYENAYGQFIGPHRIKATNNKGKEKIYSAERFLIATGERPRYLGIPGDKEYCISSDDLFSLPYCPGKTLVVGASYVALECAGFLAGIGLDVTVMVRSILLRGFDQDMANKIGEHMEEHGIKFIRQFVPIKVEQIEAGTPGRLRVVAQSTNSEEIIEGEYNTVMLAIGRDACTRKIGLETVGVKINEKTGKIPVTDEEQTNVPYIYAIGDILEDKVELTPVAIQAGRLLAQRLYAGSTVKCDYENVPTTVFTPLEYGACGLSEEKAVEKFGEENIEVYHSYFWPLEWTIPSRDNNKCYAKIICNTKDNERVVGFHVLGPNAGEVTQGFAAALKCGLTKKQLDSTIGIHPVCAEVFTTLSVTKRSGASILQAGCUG
Procedure: Recombinant TGR, human TrxR1, B. malayi (Bm)TrxR and human GR proteins were expressed and purified as described[20],[69],[79]. The codon optimized sequence for P. falciparum (PfTrxR, https://www.ncbi.nlm.nih.gov/protein/CAA60574.1/) with an N-terminal 6-His tag was synthesized and inserted into pET15b (GenScript) and expressed in BL21 (DE3) cells and purified as described for human GR[20]. TGR and TrxR enzyme inhibition assays were performed in triplicate at 25 °C as described[20] in 0.1 M potassium phosphate (pH 7.4), 10 mM EDTA, 100 µM NADPH and 0.01% Tween-20. […] The reaction was started with addition of an equal volume of DTNB (6 mM) and NADPH (100 µM) and the increase in A412 during the first 3 min was recorded. […] The reaction was preincubated for 15 min. Activity was initiated with the addition of 1 mM GSSG and 100 μM NADPH and initial rates of NADPH oxidation were monitored at 340 nm. The reactions were done in triplicate. The IC50 was calculated in GraphPad Prism.

Vero cells = experiment: Cytotoxicity in mammalian cells (Cell Titer Glo); assay type: cell-based; conditions: for LD50 ex vivo VERO: 24-hour exposure
Procedure: Following overnight incubation, formulated DMSO-compound stock solutions were diluted with DMEM at <1% DMSO final concentrations. […] Vero cells treated similarly with different concentrations of PZQ, MZM and AF (Cayman Chemicals) were used as positive controls.

S. mansoni adult worms = experiment: Schistosomicidal activity ex vivo, adult worms (Cell Titer Glo), alone or with channel blockers; assay type: cell-based; conditions: for LD50 ex vivo S. mansoni adult: 24 h exposure, compound alone; for viability at 5 µM / viability at 15 µM / viability at 30 µM / viability at 50 µM: Schistosoma mansoni
Procedure: Three-week old, female Swiss-Webster mice obtained from the Charles River were housed in the Comparative Research Center of Rush University Medical Center. Mice were infected by percutaneous tail exposure to about 200 S. mansoni or 50 S. japonicum cercaria for adult worms and about 1000 cercaria for juvenile S. mansoni worms through natural transdermal penetration of the cercariae for 1 h[81].
DMSO formulated compounds were diluted with phenol red free M199 medium or RPMI medium for NTS or juvenile and adult worms, respectively, at <1% DMSO final concentrations. NTS, juvenile and adult worms from overnight cultures were tested against compounds in triplicate. Controls were treated with DMSO alone or 5 µM AF as a positive control in appropriate medium. […] Schistosome viabilities in the presence of the compounds were assessed using this formula: % Viability = Averages of Test / Averages of DMSO Control x 100.

Human GR = biological target: T2, Human GR (Homo sapiens, UniProt P00390); experiment: Human GR enzyme inhibition (GSSG reduction, NADPH oxidation); assay type: biochemical; conditions: for % inhibition: hGR; for inhibition at 15 µM / inhibition at 30 µM / inhibition at 66.7 µM: read-out: hGR % inhibition
T2 construct: made in house
T2 sequence (P00390 44-522): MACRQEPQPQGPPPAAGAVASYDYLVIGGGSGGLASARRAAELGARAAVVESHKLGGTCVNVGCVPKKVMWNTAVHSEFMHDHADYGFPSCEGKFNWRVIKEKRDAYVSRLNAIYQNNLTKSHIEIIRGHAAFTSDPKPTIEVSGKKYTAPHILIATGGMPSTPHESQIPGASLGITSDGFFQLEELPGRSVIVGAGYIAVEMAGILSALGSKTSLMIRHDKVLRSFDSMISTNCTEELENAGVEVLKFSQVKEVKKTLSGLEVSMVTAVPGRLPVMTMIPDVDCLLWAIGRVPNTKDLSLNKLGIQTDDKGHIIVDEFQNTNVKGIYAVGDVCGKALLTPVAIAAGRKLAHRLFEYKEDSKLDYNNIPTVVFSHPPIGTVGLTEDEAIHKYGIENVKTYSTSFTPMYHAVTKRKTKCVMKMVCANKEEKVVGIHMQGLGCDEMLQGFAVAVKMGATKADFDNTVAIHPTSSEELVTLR
Procedure: Recombinant TGR, human TrxR1, B. malayi (Bm)TrxR and human GR proteins were expressed and purified as described[20],[69],[79]. The codon optimized sequence for P. falciparum (PfTrxR, https://www.ncbi.nlm.nih.gov/protein/CAA60574.1/) with an N-terminal 6-His tag was synthesized and inserted into pET15b (GenScript) and expressed in BL21 (DE3) cells and purified as described for human GR[20]. TGR and TrxR enzyme inhibition assays were performed in triplicate at 25 °C as described[20] in 0.1 M potassium phosphate (pH 7.4), 10 mM EDTA, 100 µM NADPH and 0.01% Tween-20. TGR, human TrxR1 and BmTrxR (all at 4 nM) and PfTrxR (50 nM) were preincubated with the compounds for 15 min. The reaction was started with addition of an equal volume of DTNB (6 mM) and NADPH (100 µM) and the increase in A412 during the first 3 min was recorded. […] […] Activity was initiated with the addition of 1 mM GSSG and 100 μM NADPH and initial rates of NADPH oxidation were monitored at 340 nm. The reactions were done in triplicate. The IC50 was calculated in GraphPad Prism.

[1] = 15 minutes pre-incubation, compound 15 µM
[2] = 15 minutes pre-incubation, compound 30 µM
[3] = 15 minutes pre-incubation, compound 66.7 µM
[4] = 6 hours pre-incubation, compound 15 µM
[5] = 6 hours pre-incubation, compound 30 µM
[6] = 6 hours pre-incubation, compound 66.7 µM
[7] = 15 minutes pre-incubation, 15 µM
[8] = 15 minutes pre-incubation, 30 µM
[9] = 15 minutes pre-incubation, 66.7 µM
[10] = 6 hours pre-incubation, 66.7 µM

CC(=O)OC[C@H]1O[C@@H]([S-])[C@H](OC(C)=O)[C@@H](OC(C)=O)[C@@H]1OC(C)=O.CCP(CC)CC.[Au+] [AF, auranofin, reference compound]
IC50 (Human TrxR1): 0.02 µM
% viability (Vero cells; 0.5 µM): 57.3284%
% viability (Vero cells; 1 µM): 33.3378%
% viability (Vero cells; 5 µM): 0.2783%
% viability (Vero cells; 10 µM): 0.2356%
% viability (Vero cells; 20 µM): 0.164%
% viability (Vero cells; 30 µM): 0.07463%
LD50 ex vivo VERO (Vero cells): 0.59 ± 0.11 µM
LD50 ex vivo S. mansoni adult (S. mansoni adult worms): 1.1 ± 0.04 µM
% viability (S. mansoni adult worms; S. mansoni adult worms, Conc. 0.5 µM): 85.422%
% viability (S. mansoni adult worms; S. mansoni adult worms, Conc. 1 µM): 43.1217%
% viability (S. mansoni adult worms; S. mansoni adult worms, Conc. 2 µM): 23.1816%
% viability (S. mansoni adult worms; S. mansoni adult worms, Conc. 5 µM): 3.259%

Cc1oc(-c2ccccc2)nc1CN[C@@H]1C[C@@H]2C[C@H]([C@H]1C)C2(C)C [C3]
% inhibition (Human GR; [1]): -2.234%
% inhibition (Human GR; [2]): -5.497%
% inhibition (Human GR; [3]): -7.805%
% inhibition (Human GR; [4]): -0.8033%
% inhibition (Human GR; [5]): -0.8345%
% inhibition (Human GR; [6]): -0.3955%
% inhibition (Human TrxR1; compound 15 µM): 11.8305%
% inhibition (Human TrxR1; compound 30 µM): 16.5848%
% inhibition (Human TrxR1; compound 66.7 µM): 23.0303%
% viability (Vero cells; Vero cells, Conc. 5 µM): 99.3244%
% viability (Vero cells; Vero cells, Conc. 10 µM): 93.7147%
% viability (Vero cells; Vero cells, Conc. 25 µM): 77.3582%
% viability (Vero cells; Vero cells, Conc. 35 µM): 52.4878%
% viability (Vero cells; Vero cells, Conc. 50 µM): 28.6792%

Cc1oc(-c2ccc3ccccc3c2)nc1CNC1CCCCCC1 [C5]
% inhibition (Human GR; [1]): -0.1784%
% inhibition (Human GR; [2]): -0.6429%
% inhibition (Human GR; [3]): -2.462%
% inhibition (Human GR; [4]): -0.4334%
% inhibition (Human GR; [5]): -1.271%
% inhibition (Human GR; [6]): -0.3907%
% inhibition (Human TrxR1; compound 15 µM): 4.223%
% inhibition (Human TrxR1; compound 30 µM): 2.584%
% inhibition (Human TrxR1; compound 66.7 µM): 4.769%
% viability (Vero cells; Vero cells, Conc. 5 µM): 99.0699%
% viability (Vero cells; Vero cells, Conc. 10 µM): 99.036%
% viability (Vero cells; Vero cells, Conc. 25 µM): 93.1095%
% viability (Vero cells; Vero cells, Conc. 35 µM): 87.9829%
% viability (Vero cells; Vero cells, Conc. 50 µM): 82.6807%

C[C@@H]1[C@H]2C[C@@H](C[C@H]1NCc1nc3ccccc3n1C)C2(C)C [C12]
hGR % inhibition (Human GR; [7]): -0.9179%
hGR % inhibition (Human GR; [8]): -2.193%
hGR % inhibition (Human GR; [9]): -0.3071%
hGR % inhibition (Human GR; 6 hours pre-incubation, 15 µM): -3.5243%
hGR % inhibition (Human GR; 6 hours pre-incubation, 30 µM): -2.022%
hGR % inhibition (Human GR; [10]): -0.874%
hsTrxR % inhibition (Human TrxR1; 15 µM): 0.08203%
hsTrxR % inhibition (Human TrxR1; 30 µM): 0.1317%
hsTrxR % inhibition (Human TrxR1; 66.7 µM): 0.4216%

C[C@@H]1[C@H]2C[C@@H](C[C@H]1NCc1cc(-c3ccccc3)[nH]n1)C2(C)C [Compound 11]
Human GR (inhibition at 66.7 µM) (Human GR; 66.7 µM): n.i.
inhibition at 15 µM (Human GR; [7]): -0.832%
inhibition at 30 µM (Human GR; [8]): -1.45%
inhibition at 66.7 µM (Human GR; [9]): -1.01%
inhibition at 15 µM (Human GR; 6 hours pre-incubation, 15 µM): -0.778%
inhibition at 30 µM (Human GR; 6 hours pre-incubation, 30 µM): -1.99%
inhibition at 66.7 µM (Human GR; [10]): -2.81%
viability at 5 µM (S. mansoni adult worms; S. mansoni adult worms, 5 µM, relative to Worm + RPMI control, read-out: % viability): 97.5%
viability at 15 µM (S. mansoni adult worms; S. mansoni adult worms, 15 µM, relative to Worm + RPMI control, read-out: % viability): 93.7%
viability at 30 µM (S. mansoni adult worms; S. mansoni adult worms, 30 µM, relative to Worm + RPMI control, read-out: % viability): 89.4%
viability at 50 µM (S. mansoni adult worms; S. mansoni adult worms, 50 µM, relative to Worm + RPMI control, read-out: % viability): 88.5%

C[C@@H]1[C@H]2C[C@@H](C[C@H]1NCc1nc3ccccc3n1C)C2(C)C [Compound 12]
Human GR (inhibition at 66.7 µM) (Human GR; 66.7 µM): n.i.
inhibition at 66.7 µM (Human TrxR1; 66.7 µM, 6 h preincubation, read-out: Human TrxR1 IC50 (µM) or inhibition (%) at 66.7 µM: inhibition): 28.6%
IC50 (Human TrxR1): > 66.7 µM
LD50 ex vivo S. mansoni adult (S. mansoni adult worms): >50^a µM

C[C@@H]1N=C(c2ccccc2Cl)c2cc([N+](=O)[O-])ccc2NC1=O [MZM, meclonazepam, reference compound]
Human TrxR1 IC50 (µM) or inhibition (%) at 66.7 µM: inhibition (Human TrxR1; 66.7 µM, 6 h preincubation): n.i.^e
LD50 ex vivo VERO (Vero cells): >50^a µM
LD50 ex vivo S. mansoni adult (S. mansoni adult worms): 26.9 ± 0.97 µM
viability at 5 µM (S. mansoni adult worms): 91.9%
viability at 15 µM (S. mansoni adult worms): 69.8%
viability at 30 µM (S. mansoni adult worms): 48.7%
viability at 50 µM (S. mansoni adult worms): 31.3%

O=C(C1CCCCC1)N1CC(=O)N2CCc3ccccc3C2C1 (stereo not shown) [PZQ, praziquantel]
Human TrxR1 IC50 (µM) or inhibition (%) at 66.7 µM: inhibition (Human TrxR1; 66.7 µM, 6 h preincubation): n.i.^e
LD50 ex vivo VERO (Vero cells): >50^a µM
LD50 ex vivo S. mansoni adult (S. mansoni adult worms): 32.8 ± 4.07 µM
viability at 5 µM (S. mansoni adult worms): 95.6%
viability at 15 µM (S. mansoni adult worms): 75.1%
viability at 30 µM (S. mansoni adult worms): 54.8%
viability at 50 µM (S. mansoni adult worms): 35.2%
